IC50 data for 39 compounds are collected here from patent US12624034B2, “Non-covalent modifiers of AKT1 and uses thereof” (Terremoto Biosciences, Inc., priority 2023, dated 2026).

Molecules are shown by their SMILES. Like-named read-outs stand apart in the source and are kept apart here. Where only a bound is given, the exact number is not on record here.

In experiment [1] the target is T1, AKT1 WT (Homo sapiens, UniProt P31749).
T1 construct: expressed in transfected cells; host or cells: HEK293
Put plainly: Live cell AKT1 WT target engagement by NanoBRET competitive probe displacement in HEK293 cells. In kind it is binding. The settings on record: 2 h at 37° C., read-out: AKT1 WT IC50. The protocol: (§1) Determining live cell AKT1 E17K, AKT1 WT, and AKT2 target engagement by NanoBRET competitive probe displacement. […] Briefly, HEK293 cells were transfected with plasmids encoding kinase-NanoLuciferase fusion proteins overnight. Cells were then treated with serial dilutions of compound and an ˜EC50 concentration of fluorescently-tagged ATP-competitive tracer (Promega). After incubation for 2 h at 37° C., luciferase substrate and extracellular luciferase inhibitor were added to all wells, and luminescent intensity at 460 nm and 600 nm were measured on a multimode plate-reader. The ratio of E600/E460 was calculated to give the tracer engagement signal (BRET). IC50 values were calculated by fitting BRET values to a log(inhibitor) vs. response Hill equation.
Background: In BRET a luciferase serves as donor, and the signal depends on an acceptor being close.

Experiment [2] has as its target T2, AKT2 (Homo sapiens, UniProt P31751).
T2 construct: expressed in transfected cells; host or cells: HEK293
Briefly: Live cell AKT2 target engagement by NanoBRET competitive probe displacement in HEK293 cells. The class given is binding. The settings on record: 2 h at 37° C., read-out: AKT2 IC50. The protocol: as §1

[3] abbreviates: NanoBRET competitive probe displacement, live HEK293 cells.
Where [4] appears, read: NanoBRET live cell target engagement, HEK293 cells.

T1 sequence (P31749 whole entry): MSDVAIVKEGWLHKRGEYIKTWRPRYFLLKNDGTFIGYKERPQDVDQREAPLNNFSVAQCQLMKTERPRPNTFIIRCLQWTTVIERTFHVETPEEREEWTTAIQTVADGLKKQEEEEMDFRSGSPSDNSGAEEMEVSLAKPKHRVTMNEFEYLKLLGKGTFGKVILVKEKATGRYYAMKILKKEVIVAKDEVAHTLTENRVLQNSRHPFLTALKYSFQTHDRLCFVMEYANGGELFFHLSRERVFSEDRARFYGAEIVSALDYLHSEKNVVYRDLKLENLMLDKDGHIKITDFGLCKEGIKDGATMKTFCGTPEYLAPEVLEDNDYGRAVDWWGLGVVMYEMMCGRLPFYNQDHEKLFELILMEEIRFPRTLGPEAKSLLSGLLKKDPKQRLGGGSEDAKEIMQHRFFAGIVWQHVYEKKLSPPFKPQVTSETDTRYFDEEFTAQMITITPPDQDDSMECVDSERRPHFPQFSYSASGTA
T2 sequence (P31751 whole entry): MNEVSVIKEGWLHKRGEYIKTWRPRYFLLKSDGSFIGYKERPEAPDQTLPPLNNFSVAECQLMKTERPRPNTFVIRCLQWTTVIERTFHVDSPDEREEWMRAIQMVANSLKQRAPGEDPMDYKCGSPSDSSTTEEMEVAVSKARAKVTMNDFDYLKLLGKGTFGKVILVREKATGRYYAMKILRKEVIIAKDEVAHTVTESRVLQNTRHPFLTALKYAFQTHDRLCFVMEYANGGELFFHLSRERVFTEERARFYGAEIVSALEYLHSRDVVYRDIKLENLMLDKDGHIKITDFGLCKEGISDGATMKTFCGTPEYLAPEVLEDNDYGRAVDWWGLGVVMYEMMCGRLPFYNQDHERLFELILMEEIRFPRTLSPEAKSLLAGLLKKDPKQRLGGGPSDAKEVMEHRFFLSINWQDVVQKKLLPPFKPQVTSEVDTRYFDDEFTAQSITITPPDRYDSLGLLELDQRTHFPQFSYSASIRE

Broadly, the IC50 is the concentration that gives 50% inhibition. For the compound `Nc1ncccc1-c1nc2ccc(C#CC3CC3)nc2n1-c1ccc2c(c1)CC[C@@H]2NC1CN(C(=O)C2CC2)C1` [Compound 506], the results for the IC50 in experiment [1] (setting [3]) and in experiment [2] (setting [3]) were 96.9 nM and 8940 nM, respectively.
For the compound `Cc1ccc(C(=O)N[C@H]2CCc3cc(-n4c(-c5cccnc5N)nc5cc(F)c(-n6nccn6)nc54)ccc32)cn1` [Compound 466], the IC50 stood at 25.9 nM in experiment [1] (setting [3]) and 1570 nM in experiment [2] (setting [3]).
Regarding `Nc1ncccc1-c1nc2ccc(-n3cccn3)nc2n1-c1ccc2c(c1)CC[C@@H]2n1cc(-c2cccnc2)nn1` [Compound 199], the IC50 in experiment [1] (setting [4]) was found to be 10.6 nM; in experiment [2] (setting [4]), 83.1 nM.
The like results for `CN[C@H]1CCc2cc(-n3c(-c4cccnc4N)nc4ccc(-n5cccn5)nc43)ccc21` [Compound 339] were, in that order, 126 nM and 5170 nM.
The like results for `Nc1ncccc1-c1nc2c(C(F)F)cc(-n3cccn3)nc2n1-c1ccc2c(c1)CC[C@@H]2NC(=O)c1ccc(C(F)F)nc1` [Compound 177, (S)—N-(5-(2-(2-aminopyridin-3-yl)-7-(difluoromethyl)-5-(1H-pyrazol-1-yl)-3H-imidazo[4,5-b]pyridin-3-yl)-2,3-dihydro-1H-inden-1-yl)-6-(difluoromethyl)nicotinamide] were, in that order, 10.6 nM and 47.2 nM.
The like results for `Nc1ncccc1-c1nc2ccc(-n3cccn3)nc2n1-c1ccc2c(c1)CC[C@@H]2NC(=O)c1ccc2[nH]nnc2c1` [Compound 190] were, in that order, 25.5 nM and 122 nM.
On to `Nc1ncccc1-c1nc2ccc(-n3cccn3)nc2n1-c1ccc2c(c1)CC[C@@H]2n1cnnc1Cc1ccccc1` [Compound 169, (S)-3-(3-(1-(3-benzyl-4H-1,2,4-triazol-4-yl)-2,3-dihydro-1H-inden-5-yl)-5-(1H-pyrazol-1-yl)-3H-imidazo[4,5-b]pyridin-2-yl)pyridin-2-amine], for which the results for the IC50 in experiment [1] (setting [4]) and in experiment [2] (setting [4]) were 12 nM and 228 nM, respectively.
The like results for `CNC(=O)c1cccc(C(=O)N[C@H]2CCc3cc(-n4c(-c5cccnc5N)nc5ccc(-n6cccn6)nc54)ccc32)c1` [Compound 292] were, in that order, 12.9 nM and 73.2 nM.
On to `Cc1ccc(CN[C@H]2CCc3cc(-n4c(-c5cccnc5N)nc5ccc(-n6cccn6)nc54)ccc32)cn1` [Compound 70], for which the IC50 was determined as 49.4 nM in experiment [1] (setting [4]) and 576 nM in experiment [2] (setting [4]).
Take `Nc1ncccc1-c1nc2ccc(-n3cccn3)nc2n1-c1ccc2c(c1)CC[C@@H]2NC(=O)c1ccc(Cl)cc1` [Compound 263]: the IC50 was found to be 9.18 nM in experiment [1] (setting [4]) and 120 nM in experiment [2] (setting [4]).
In the same order, the values of `COc1ncccc1C(=O)N[C@H]1CCc2cc(-n3c(-c4cccnc4N)nc4ccc(-n5cccn5)nc43)ccc21` [Compound 128] are 34.4 nM and 442 nM.
With `Fc1ccccc1-c1nc2ccc(-n3cccn3)nc2n1-c1ccc2c(c1)CC[C@@H]2n1cnnc1` [Compound 529], the IC50 in experiment [1] (setting [3]) turned out to be 8.2 nM; in experiment [2] (setting [3]) it was 621 nM.
For `Cc1ccc(C(=O)N[C@H]2CCc3cc(-n4c(-c5cccnc5N)nc5ccc(-n6cnc(C)n6)nc54)ccc32)cn1` [Compound 417, (S)—N-(5-(2-(2-aminopyridin-3-yl)-5-(3-methyl-1H-1,2,4-triazol-1-yl)-3H-imidazo[4,5-b]pyridin-3-yl)-2,3-dihydro-1H-inden-1-yl)-6-methylnicotinamide], the IC50 in experiment [1] (setting [3]) is 19.6 nM; in experiment [2] (setting [3]) it was 561 nM.
The like results for `Nc1ncccc1-c1nc2ccc(-n3ccc(C4CCOCC4)n3)nc2n1-c1ccc2c(c1)CC[C@@H]2NC1CCN(C(=O)C2CC2)CC1` [Compound 487] were, in that order, 42.8 nM and more than 10000 nM.
Turning to `Cn1nccc1C(=O)N[C@H]1CCc2cc(-n3c(-c4cccnc4N)nc4ccc(-n5cccn5)nc43)ccc21` [Compound 144], the concentration for half-maximal inhibition (IC50) in experiment [1] (setting [4]) came to 43.6 nM; in experiment [2] (setting [4]) it was 520 nM.
In the case of `COCCN(C)[C@H]1CCc2cc(-n3c(-c4cccnc4N)nc4ccc(-n5cccn5)nc43)ccc21` [Compound 457], the IC50 in experiment [1] (setting [3]) amounted to 235 nM; in experiment [2] (setting [3]), 6740 nM.
Take `Nc1ncccc1-c1nc2ccc(-n3cccn3)nc2n1-c1ccc2c(c1)CC[C@@H]2NC(=O)c1cnc(O)c(F)c1` [Compound 296]: the IC50 came to 56.2 nM in experiment [1] (setting [4]) and 660 nM in experiment [2] (setting [4]).
For the compound `Nc1ncccc1-c1nc2ccc(-n3nccn3)nc2n1-c1ccc2c(c1)CC[C@@H]2NC(=O)c1ccc(CO)nc1` [Compound 490], the results for the IC50 in experiment [1] (setting [3]) and in experiment [2] (setting [3]) were 74.3 nM and 3200 nM, respectively.
As for `Cn1ccc(N2CCC(N[C@@H]3c4ccc(-n5c(-c6cccnc6N)nc6ccc(-n7cccn7)nc65)cc4CC3F)CC2)n1` (stereo partly drawn) [Compound 519], the IC50 in experiment [1] (setting [3]) was 39.2 nM; in experiment [2] (setting [3]), 1220 nM.
With `Nc1ncccc1-c1nc2ccc(-n3cccn3)nc2n1-c1ccc2c(c1)CC[C@@H]2NC1CCS(=O)(=O)CC1` [Compound 89], the figures for the IC50 in experiment [1] (setting [4]) and in experiment [2] (setting [4]) were 459 nM and more than 10000 nM, respectively.
In the same order, the values of `Cc1nccnc1C(=O)N[C@H]1CCc2cc(-n3c(-c4cccnc4N)nc4ccc(-c5ncco5)nc43)ccc21` [Compound 270] are 535 nM and more than 10000 nM.
In the same order, the values of `CC(=O)N1CCC(N[C@H]2CCc3cc(-n4c(-c5cccnc5N)nc5ccc(-n6cccn6)nc54)ccc32)CC1` [Compound 109] are 257 nM and 5830 nM.
Regarding `Nc1ncccc1-c1nc2ccc(-n3ncc(C4CC4)n3)nc2n1-c1ccc2c(c1)CC[C@@H]2NC(=O)c1cnc(C(F)F)s1` [Compound 588], the IC50 in experiment [1] (setting [3]) came out at 27 nM; in experiment [2] (setting [3]), 764 nM.
The like results for `COCc1cc(C(=O)N[C@H]2CCc3cc(-n4c(-c5cccnc5N)nc5ccc(-n6cccn6)nc54)ccc32)ccc1O` [Compound 410, (S)—N-(5-(2-(2-aminopyridin-3-yl)-5-(1H-pyrazol-1-yl)-3H-imidazo[4,5-b]pyridin-3-yl)-2,3-dihydro-1H-inden-1-yl)-4-hydroxy-3-(methoxymethyl)benzamide] were, in that order, 7.43 nM and 57.6 nM.
Take `Nc1ncccc1-c1nc2ccc(C#CC3COC3)nc2n1-c1ccc2c(c1)CC[C@@H]2NC(=O)c1ccc(C(F)F)nc1` [Compound 408]: the half-maximal inhibitory concentration (IC50) in experiment [1] (setting [3]) was 91.1 nM; in experiment [2] (setting [3]), 2300 nM.
The like results for `Nc1ncccc1-c1nc2ccc(-n3cccn3)nc2n1-c1ccc2c(c1)CC[C@@H]2NC1CCN(C(=O)C2CC2)CC1F` (stereo partly drawn) [Compound 443] were, in that order, 23.2 nM and 940 nM.
Turning to `Cc1ncccc1C(=O)N[C@H]1CCc2cc(-n3c(-c4cccnc4N)nc4ccc(C5CC5)nc43)ccc21` [Compound 129], the IC50 in experiment [1] (setting [4]) is 111 nM; in experiment [2] (setting [4]), more than 10000 nM.
The like results for `Nc1ncccc1-c1nc2ccc(-n3cccn3)nc2n1-c1ccc2c(c1)CC[C@@H]2NC(=O)CC1CCC(=O)N1` (stereo partly drawn) [Compound 47, N—((S)-5-(2-(2-aminopyridin-3-yl)-5-(1H-pyrazol-1-yl)-3H-imidazo[4,5-b]pyridin-3-yl)-2,3-dihydro-1H-inden-1-yl)-2-(5-oxopyrrolidin-2-yl)acetamide] were, in that order, more than 1000 nM and more than 10000 nM.
Take `Nc1ncccc1-c1nc2ccc(-n3cccn3)nc2n1-c1ccc2c(c1)CC[C@@H]2NC(=O)c1ccc(O)nc1` [Compound 297]: the IC50 in experiment [1] (setting [4]) is 163 nM; in experiment [2] (setting [4]), 4220 nM.
With `C#Cc1cc(-n2nccn2)nc2c1nc(-c1cccnc1N)n2-c1ccc2c(c1)CC[C@@H]2NC(=O)c1ccc(C)nc1` [Compound 587], the IC50 stood at 116 nM in experiment [1] (setting [3]) and 1010 nM in experiment [2] (setting [3]).
On to `Cc1csc(-c2ccc3nc(-c4cccnc4N)n(-c4ccc5c(c4)CC[C@@H]5n4ccnn4)c3n2)n1` [Compound 316], for which the IC50 in experiment [1] (setting [4]) was found to be 16.9 nM; in experiment [2] (setting [4]) it was 201 nM.
`Cc1ccc(C(=O)N[C@H]2CC(F)(F)c3cc(-n4c(-c5cccnc5N)nc5ccc(-n6cccn6)nc54)ccc32)cn1` [Compound 299]: the figures for the IC50 in experiment [1] (setting [4]) and in experiment [2] (setting [4]) were more than 1000 nM and more than 10000 nM, respectively.
Take `Cc1cc(C(=O)N[C@H]2CCc3cc(-n4c(-c5cccnc5N)nc5ccc(-n6nccn6)nc54)ccc32)cnc1C(F)F` [Compound 102]: the IC50 in experiment [1] (setting [4]) stood at 31.5 nM; in experiment [2] (setting [4]), 836 nM.
Turning to `Cc1nnsc1C(=O)N[C@H]1CCc2cc(-n3c(-c4cccnc4N)nc4ccc(-n5cccn5)nc43)ccc21` [Compound 438], the IC50 was determined as 25.3 nM in experiment [1] (setting [3]) and 795 nM in experiment [2] (setting [3]).
Turning to `COCCOc1cc(C(=O)N[C@H]2CCc3cc(-n4c(-c5cccnc5N)nc5ccc(-n6cccn6)nc54)ccc32)ccn1` [Compound 203], the IC50 in experiment [1] (setting [4]) amounted to 10.5 nM; in experiment [2] (setting [4]) it was 99.6 nM.
On to `Nc1ncccc1-c1nc2ccc(-n3cccn3)nc2n1-c1ccc2c(c1)CC[C@@H]2NC1CCN(C(=O)[C@H]2CCO2)CC1` [Compound 425], for which the IC50 in experiment [1] (setting [3]) is 109 nM; in experiment [2] (setting [3]), 3090 nM.
`Cc1ncccc1C(=O)N[C@@H]1c2ccc(-n3c(-c4cccnc4N)nc4ccc(-n5cccn5)nc43)cc2CC1F` (stereo partly drawn) [Compound 147]: the results for the IC50 in experiment [1] (setting [4]) and in experiment [2] (setting [4]) were 19.6 nM and 131 nM, respectively.
With `Cc1ccc(C(=O)N[C@H]2CCc3cc(-n4c(-c5cccnc5N)nc5ccc(-n6cncn6)nc54)ccc32)cn1` [Compound 346], the IC50 in experiment [1] (setting [4]) amounted to 24.7 nM; in experiment [2] (setting [4]), 987 nM.
In the same order, the values of `Nc1ncccc1-c1nc2ccc(-c3ccn(C(F)F)n3)nc2n1-c1ccc2c(c1)CC[C@@H]2n1ccnn1` [Compound 315] are 23.9 nM and 617 nM.
